Laboratory results: ChEMBL document CHEMBL2150884, “Inhibition of cell proliferation by quindoline derivative (SYUIQ-05) through its preferential interaction with c-myc promoter G-quadruplex” (J Med Chem, 2011)
The source made the active and inactive calls.

Experiments:
Nucleic Acid [1] = assay: Binding affinity to c-myc Pu27 DNA G-quadruplex in human CA46 cells assessed as down regulation of c-myc protein expression at 0.05 to 0.1 uM after 4 days by Western blot method; assay type: cell-based
Nucleic Acid [2] = assay: Binding affinity to c-myc Pu27 DNA G-quadruplex in human Ramos cells assessed as down regulation of TERT protein expression at 0.05 to 0.1 uM after 4 days by Western blot method; assay type: cell-based
Nucleic Acid [3] = assay: Binding affinity to c-myc Pu27 DNA G-quadruplex in human CA46 cells assessed as down regulation of TERT transcription at 0.1 uM after 4 days by qRT-PCR; assay type: cell-based
Nucleic Acid [4] = assay: Binding affinity to c-myc Pu27 DNA G-quadruplex in human Ramos cells assessed as down regulation of c-myc protein expression at 0.05 to 0.1 uM after 4 days by Western blot method; assay type: cell-based
Nucleic Acid [5] = assay: Binding affinity to c-myc Pu27 DNA G-quadruplex in human Ramos cells assessed as down regulation of c-myc transcription at 0.1 uM after 4 days by qRT-PCR; assay type: cell-based
Nucleic Acid [6] = assay: Binding affinity to c-myc Pu27 DNA G-quadruplex in human Ramos cells assessed as down regulation of TERT transcription at 0.1 uM after 4 days by qRT-PCR; assay type: cell-based
Nucleic Acid [7] = assay: Binding affinity to c-myc Pu27 DNA G-quadruplex in human CA46 cells assessed as down regulation of c-myc transcription at 0.1 uM after 4 days by qRT-PCR; assay type: cell-based
Nucleic Acid [8] = assay: Inhibition of NM23-H2 interaction with c-myc DNA G-quadruplex in human HeLa cells assessed as inhibition of c-myc expression at 0.1 uM measured by quantitative RT-PCR analysis; assay type: cell-based
Nucleic Acid [9] = assay: Inhibition of NM23-H2 interaction with wild type c-myc DNA G-quadruplex expressed in human HeLa cells assessed as dissociation of NM23-H2 from c-myc promoter at 0.05 to 0.1 uM by Ch-IP assay; assay type: cell-based
Nucleic Acid [10] = assay: Inhibition of NM23-H2 interaction with c-myc mutant promoter DNA expressed in human HeLa cells assessed as dissociation of NM23-H2 from c-myc promoter at 0.05 to 0.1 uM by Ch-IP assay; assay type: cell-based
[11] = target: Telomerase reverse transcriptase (Homo sapiens) (UniProt O14746); assay: […] in human Ramos cells at 0.1 uM for 16 days by TRF length assay; assay type: cell-based
[12] = target: Telomerase reverse transcriptase (Homo sapiens) (UniProt O14746); assay: […] in human Ramos cells at 0.05 uM for 16 days by TRF length assay; assay type: cell-based
[13] = target: Telomerase reverse transcriptase (Homo sapiens) (UniProt O14746); assay: […] in human Ramos cells at 0.05 to 0.1 uM for 16 days by TRF length assay; assay type: cell-based
Ramos [14] = assay: Induction of senescence in human Ramos cells assessed as flat cells at 0.05 to 0.1 uM after 16 days by beta galactosidase assay; assay type: functional, cell-based
Ramos [15] = assay: Induction of senescence in human Ramos cells assessed as gaint cells at 0.05 to 0.1 uM after 16 days by beta galactosidase assay; assay type: functional, cell-based
CA46 [16] = assay: Induction of senescence in human CA46 cells assessed as flat cells at 0.05 to 0.1 uM after 16 days by beta galactosidase assay; assay type: functional, cell-based
CA46 [17] = assay: Induction of senescence in human CA46 cells assessed as gaint cells at 0.05 to 0.1 uM after 16 days by beta galactosidase assay; assay type: functional, cell-based
[18] = Cytotoxicity in human GLC82 cells by MTT assay; assay type: functional, cell-based
HeLa = assay: Cytotoxicity in human HeLa cells by MTT assay; assay type: functional, cell-based
HL-60 = assay: Cytotoxicity in human HL60 cells by MTT assay; assay type: functional, cell-based
K562 = assay: Cytotoxicity in human K562 cells by MTT assay; assay type: functional, cell-based
[19] = Cytotoxicity in human CNE2 cells by MTT assay; assay type: functional, cell-based; details: CNE-2
MGC-803 = assay: Cytotoxicity in human MGC803 cells by MTT assay; assay type: functional, cell-based
Bel-7402 = assay: Cytotoxicity in human Bel7402 cells by MTT assay; assay type: functional, cell-based
[20] = Cytotoxicity in human SUNE1 cells by MTT assay; assay type: functional, cell-based
Ramos [21] = assay: Antiproliferative activity against human Ramos cells assessed as cell viability after 20 days; assay type: functional, cell-based
CA46 [22] = assay: Antiproliferative activity against cmyc NHE III1 element-deficient human CA46 cells assessed as cell viability after 20 days; assay type: functional, cell-based
Ramos [23] = assay: Antiproliferative activity against human Ramos cells assessed as cell viability at 0.05 uM after 20 days; assay type: functional, cell-based
Nucleic Acid [24] = assay: Binding affinity to G-quadruplex HTG21 assessed as change in melting temperature by FRET assay; assay type: nucleic-acid assay
Nucleic Acid [25] = assay: Binding affinity to G-quadruplex HTG21 by PCR stop assay; assay type: nucleic-acid assay
Nucleic Acid [26] = assay: Binding affinity to G-quadruplex HTG21 by ITC titration assay; assay type: nucleic-acid assay
Nucleic Acid [27] = assay: Binding affinity to c-myc Pu27 DNA G-quadruplex assessed as change in melting temperature by FRET assay; assay type: nucleic-acid assay
Nucleic Acid [28] = assay: Binding affinity to c-myc Pu27 DNA G-quadruplex by PCR stop assay; assay type: nucleic-acid assay
Nucleic Acid [29] = assay: Binding affinity to c-myc Pu27 DNA G-quadruplex by ITC titration assay; assay type: nucleic-acid assay
Nucleic Acid [30] = assay: Inhibition of POT1 interaction with wild type c-myc DNA G-quadruplex expressed in human HeLa cells assessed as dissociation of POT1 from c-myc promoter at 0.05 to 0.1 uM by Ch-IP assay; assay type: cell-based

Chain of Telomerase reverse transcriptase (Homo sapiens) (O14746 whole entry): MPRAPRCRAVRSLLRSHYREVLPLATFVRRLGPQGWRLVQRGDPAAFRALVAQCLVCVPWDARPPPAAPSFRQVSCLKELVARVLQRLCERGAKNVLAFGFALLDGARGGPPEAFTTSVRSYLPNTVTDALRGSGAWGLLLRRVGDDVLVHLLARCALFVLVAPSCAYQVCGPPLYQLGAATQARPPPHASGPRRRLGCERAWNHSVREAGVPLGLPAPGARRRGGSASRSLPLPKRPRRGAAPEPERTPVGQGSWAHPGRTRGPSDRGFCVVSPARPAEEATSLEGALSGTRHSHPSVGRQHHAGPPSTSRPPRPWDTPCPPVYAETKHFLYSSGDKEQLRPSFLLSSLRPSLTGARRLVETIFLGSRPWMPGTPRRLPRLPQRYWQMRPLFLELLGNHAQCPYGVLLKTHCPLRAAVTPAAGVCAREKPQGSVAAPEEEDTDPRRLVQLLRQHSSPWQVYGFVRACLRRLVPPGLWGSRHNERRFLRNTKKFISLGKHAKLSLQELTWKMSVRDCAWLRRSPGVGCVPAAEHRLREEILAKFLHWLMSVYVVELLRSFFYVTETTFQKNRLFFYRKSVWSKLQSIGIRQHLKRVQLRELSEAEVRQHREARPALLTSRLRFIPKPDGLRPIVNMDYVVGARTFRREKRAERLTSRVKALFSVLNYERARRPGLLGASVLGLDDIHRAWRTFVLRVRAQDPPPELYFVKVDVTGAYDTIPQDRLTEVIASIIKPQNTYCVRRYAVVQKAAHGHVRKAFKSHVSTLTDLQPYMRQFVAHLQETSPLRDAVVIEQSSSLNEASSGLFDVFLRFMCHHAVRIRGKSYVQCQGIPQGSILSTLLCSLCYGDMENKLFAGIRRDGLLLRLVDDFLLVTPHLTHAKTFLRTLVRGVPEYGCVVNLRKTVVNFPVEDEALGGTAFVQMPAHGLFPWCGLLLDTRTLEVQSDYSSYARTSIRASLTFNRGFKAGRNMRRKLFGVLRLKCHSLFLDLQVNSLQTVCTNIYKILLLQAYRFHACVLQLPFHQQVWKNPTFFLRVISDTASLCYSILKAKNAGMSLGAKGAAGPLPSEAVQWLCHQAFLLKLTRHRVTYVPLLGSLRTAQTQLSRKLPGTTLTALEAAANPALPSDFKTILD

CN(C)CCCNc1c2ccccc2nc2c1[nH]c1ccccc12
active: Activity (Nucleic Acid [1]) | Activity (Nucleic Acid [2]) | Activity (Nucleic Acid [4]) | Activity (Nucleic Acid [5]) | Activity (Nucleic Acid [6]) | inhibition (Nucleic Acid [8]) | inhibition (Nucleic Acid [9]) | inhibition [11] | inhibition [12] | inhibition [13] | Activity (Ramos [14]) | Activity (Ramos [15]) | Activity (Ramos [21]) Dose-dependent effect | Activity (Ramos [23])
240 nM: IC50 [18] | IC50 (HeLa) | IC50 (HL-60) | IC50 (K562) | IC50 [19] | IC50 (MGC-803) | IC50 (Bel-7402) | IC50 [20]
2500 nM: IC50 (Nucleic Acid [25])
10 °C: ΔTm (Nucleic Acid [24])
1800 nM: IC50 (Nucleic Acid [28])
13 °C: ΔTm (Nucleic Acid [27])
1.79 10^4 M^-1: Ka (Nucleic Acid [26])
4.03 10^4 M^-1: Ka (Nucleic Acid [29])
inactive: Activity (Nucleic Acid [3]) | Activity (Nucleic Acid [7]) | inhibition (Nucleic Acid [10]) | Activity (CA46 [16]) | Activity (CA46 [17]) | inhibition (CA46 [22]) | inhibition (Nucleic Acid [30])
